The results in this text go back to US20230265116A1, “DEGRADATION OF (EGFR) BY CONJUGATION OF EGFR INHIBITORS WITH E3 LIGASE LIGAND AND METHODS OF USE” (BEIGENE, LTD., priority 2020, published 2023).

Usually DC50 stands for the concentration at which degradation of the target reaches its halfway point. As a reminder, the Dmax is the largest share of the target that was removed.

Common to all, as to assay type: cell-based
Experiment [1] deals with EGFR Del19/T790M/C797S (BaF3-DTC cells). As to the kind of experiment: EGFR degradation HTRF assay, BaF3-DTC cells. Particulars: 16h treatment; for DTC Dmax (%): maximum percentage of degradation; for DC50: read-out: DTC DC50. In short, it runs like this:
(§1)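 Cells treated 16 h at 37 °C, 5% CO2 in medium with 0.2% DMSO; top final concentration 10 uM, 5-fold dilution, 8 doses. Lysates read by HTRF (665/620 nm); degradation % versus DMSO high control, DC50 from four-parameter fit, Dmax as maximal degradation.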
On the technique in general: TR-FRET usually uses a lanthanide donor and a delayed reading to cut background.

In experiment [2] the target is T1, EGFR L858R/T790M/C797S (BaF3-LTC cells) (Homo sapiens, UniProt P00533, C797S/L858R/T790M).
T1 construct: expressed in transfected cells; host or cells: BaF3
The experiment in a line: EGFR degradation HTRF assay, BaF3-LTC cells. As to conditions: BaF3-LTC, 16h treatment; for Dmax: maximum percentage of degradation, read-out: LTC Dmax (%); for DC50: read-out: LTC DC50. In short, it runs like this: as §1

Experiment [3] concerns the target T2, EGFR L858R/T790M (H1975-clone #36, homozygous) (Homo sapiens, UniProt P00533, L858R/T790M).
T2 construct: designed to specifically target WT EGFR but preserve the L858R/T790M copy; host or cells: H1975-clone #36
The experiment in a line: EGFR degradation HTRF assay, H1975-clone #36 cells. As to conditions: H1975 #36, 16h treatment; for Dmax: NCI-H1975, maximum percentage of degradation. In short, it runs like this:
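H1975 clone #36, made homozygous for L858R/T790M EGFR by knockout of the WT allele, treated 16 h at 37 °C with compound in 0.2% DMSO medium. Eight doses from 10 uM, 5-fold dilutions. EGFR measured by HTRF in lysates. DC50 and Dmax fitted against DMSO controls.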

In a further experiment the target is T3, EGFR (HCC827 cells) (Homo sapiens, UniProt P00533, DEL746-750).
T3 construct: endogenous in cells; host or cells: HCC827
The experiment in a line: EGFR degradation HTRF assay, HCC827 cells. As to conditions: HCC827, 16h treatment; for Dmax: maximum percentage of degradation. In short, it runs like this:
as §1

Each structure is given as a SMILES string.

T2 sequence (P00533 25-1210 T790M/L858R): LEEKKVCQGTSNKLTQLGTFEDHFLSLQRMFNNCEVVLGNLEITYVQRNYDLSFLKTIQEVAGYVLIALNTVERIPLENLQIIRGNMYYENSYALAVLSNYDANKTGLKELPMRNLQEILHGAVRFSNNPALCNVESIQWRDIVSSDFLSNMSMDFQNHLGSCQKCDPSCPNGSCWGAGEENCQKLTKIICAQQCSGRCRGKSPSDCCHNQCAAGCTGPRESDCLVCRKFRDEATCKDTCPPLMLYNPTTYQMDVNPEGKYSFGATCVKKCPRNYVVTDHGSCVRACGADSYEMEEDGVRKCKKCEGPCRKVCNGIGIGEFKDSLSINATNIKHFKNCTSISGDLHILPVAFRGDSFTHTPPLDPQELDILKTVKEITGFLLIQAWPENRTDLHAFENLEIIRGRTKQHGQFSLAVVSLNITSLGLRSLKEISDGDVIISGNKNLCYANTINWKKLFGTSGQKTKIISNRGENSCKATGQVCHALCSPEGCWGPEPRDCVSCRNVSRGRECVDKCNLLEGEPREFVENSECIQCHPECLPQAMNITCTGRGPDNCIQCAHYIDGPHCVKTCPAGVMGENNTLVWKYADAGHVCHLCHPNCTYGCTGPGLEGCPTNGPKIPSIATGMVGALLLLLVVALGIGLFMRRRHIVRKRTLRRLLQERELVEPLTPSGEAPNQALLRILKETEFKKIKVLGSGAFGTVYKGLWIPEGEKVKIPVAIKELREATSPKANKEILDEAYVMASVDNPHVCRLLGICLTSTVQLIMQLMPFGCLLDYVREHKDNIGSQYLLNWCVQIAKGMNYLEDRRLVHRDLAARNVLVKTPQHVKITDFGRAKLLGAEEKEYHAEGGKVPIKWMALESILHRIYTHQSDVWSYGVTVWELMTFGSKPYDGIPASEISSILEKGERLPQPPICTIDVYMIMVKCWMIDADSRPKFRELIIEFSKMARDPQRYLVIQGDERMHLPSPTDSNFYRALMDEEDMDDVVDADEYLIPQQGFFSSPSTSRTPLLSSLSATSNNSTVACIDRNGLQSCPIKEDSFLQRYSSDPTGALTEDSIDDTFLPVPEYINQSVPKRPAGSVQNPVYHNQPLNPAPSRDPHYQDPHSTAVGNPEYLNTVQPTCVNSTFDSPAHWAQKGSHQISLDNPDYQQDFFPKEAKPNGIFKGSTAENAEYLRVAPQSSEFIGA
T3 sequence (P00533 with tags, fused parts or gaps DEL746-750): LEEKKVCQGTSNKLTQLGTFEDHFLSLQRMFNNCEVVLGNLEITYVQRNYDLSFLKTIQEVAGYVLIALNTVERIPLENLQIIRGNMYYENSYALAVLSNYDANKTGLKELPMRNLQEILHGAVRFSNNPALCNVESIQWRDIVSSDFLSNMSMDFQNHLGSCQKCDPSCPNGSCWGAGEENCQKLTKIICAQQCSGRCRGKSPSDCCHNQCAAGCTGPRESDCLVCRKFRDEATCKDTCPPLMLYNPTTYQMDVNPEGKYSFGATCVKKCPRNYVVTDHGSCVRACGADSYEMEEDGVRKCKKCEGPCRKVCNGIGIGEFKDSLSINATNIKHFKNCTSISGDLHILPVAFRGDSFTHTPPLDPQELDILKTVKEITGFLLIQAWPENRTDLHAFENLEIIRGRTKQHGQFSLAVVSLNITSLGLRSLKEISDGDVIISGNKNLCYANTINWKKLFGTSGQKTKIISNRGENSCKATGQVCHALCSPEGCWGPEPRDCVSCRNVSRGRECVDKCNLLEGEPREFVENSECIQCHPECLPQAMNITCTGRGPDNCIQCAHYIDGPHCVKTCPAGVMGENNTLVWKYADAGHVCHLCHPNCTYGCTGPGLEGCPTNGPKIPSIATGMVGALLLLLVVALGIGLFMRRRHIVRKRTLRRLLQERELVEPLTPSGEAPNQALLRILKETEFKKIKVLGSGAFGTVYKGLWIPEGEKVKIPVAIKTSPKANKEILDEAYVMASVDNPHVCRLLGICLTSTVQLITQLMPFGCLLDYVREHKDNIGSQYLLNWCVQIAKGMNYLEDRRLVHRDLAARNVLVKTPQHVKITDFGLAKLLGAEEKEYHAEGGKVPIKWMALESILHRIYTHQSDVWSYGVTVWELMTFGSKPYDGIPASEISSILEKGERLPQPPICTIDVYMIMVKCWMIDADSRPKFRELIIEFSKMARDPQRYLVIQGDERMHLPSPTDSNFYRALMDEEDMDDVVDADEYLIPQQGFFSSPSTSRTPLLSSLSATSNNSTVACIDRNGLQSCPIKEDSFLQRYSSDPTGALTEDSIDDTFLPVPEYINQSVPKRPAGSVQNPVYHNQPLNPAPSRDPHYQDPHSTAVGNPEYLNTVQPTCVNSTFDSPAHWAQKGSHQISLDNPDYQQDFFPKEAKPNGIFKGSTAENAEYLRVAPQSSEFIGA
T1 sequence (P00533 25-1210 T790M/C797S/L858R): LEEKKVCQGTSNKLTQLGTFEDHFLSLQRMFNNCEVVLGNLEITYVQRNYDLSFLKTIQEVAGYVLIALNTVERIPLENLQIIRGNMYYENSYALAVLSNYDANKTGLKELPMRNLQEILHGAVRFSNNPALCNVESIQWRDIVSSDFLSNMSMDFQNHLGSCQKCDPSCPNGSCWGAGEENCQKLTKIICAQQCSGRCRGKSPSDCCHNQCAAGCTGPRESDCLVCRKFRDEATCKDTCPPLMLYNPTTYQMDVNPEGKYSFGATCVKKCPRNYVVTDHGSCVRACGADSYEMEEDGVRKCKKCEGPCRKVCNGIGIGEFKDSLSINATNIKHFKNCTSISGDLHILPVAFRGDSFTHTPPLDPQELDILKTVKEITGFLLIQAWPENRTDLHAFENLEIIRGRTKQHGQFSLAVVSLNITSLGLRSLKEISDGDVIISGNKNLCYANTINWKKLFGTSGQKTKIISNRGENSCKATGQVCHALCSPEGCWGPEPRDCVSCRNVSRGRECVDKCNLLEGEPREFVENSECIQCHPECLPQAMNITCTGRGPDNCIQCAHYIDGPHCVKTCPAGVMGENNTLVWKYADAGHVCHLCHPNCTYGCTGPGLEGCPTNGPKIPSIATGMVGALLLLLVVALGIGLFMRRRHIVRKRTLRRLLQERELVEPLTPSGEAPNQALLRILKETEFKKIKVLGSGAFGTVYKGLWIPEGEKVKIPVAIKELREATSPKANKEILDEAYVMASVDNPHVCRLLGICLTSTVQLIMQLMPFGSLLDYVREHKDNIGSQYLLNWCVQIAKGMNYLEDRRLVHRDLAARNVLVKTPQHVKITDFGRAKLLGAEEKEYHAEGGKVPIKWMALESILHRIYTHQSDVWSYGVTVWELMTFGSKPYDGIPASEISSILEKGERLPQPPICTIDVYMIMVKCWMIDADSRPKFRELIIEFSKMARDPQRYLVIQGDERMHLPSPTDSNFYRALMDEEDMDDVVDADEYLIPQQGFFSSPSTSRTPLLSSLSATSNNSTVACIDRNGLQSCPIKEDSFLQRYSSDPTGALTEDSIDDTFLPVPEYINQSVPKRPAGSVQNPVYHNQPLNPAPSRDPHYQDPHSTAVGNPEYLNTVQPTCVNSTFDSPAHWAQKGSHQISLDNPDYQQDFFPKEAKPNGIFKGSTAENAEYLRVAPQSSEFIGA

For `CCc1cc(Nc2ncc(Br)c(Nc3ccc4nccnc4c3P(C)(C)=O)n2)c(OC)cc1N1CCC(N2CCN(C(=O)C3CCN(c4ccc5c(c4)C(=O)N(C4CCC(=O)NC4=O)C5=O)CC3)CC2)CC1` (centres unmarked) [Example 67, 5-(4-(4-(1-(4-((5-bromo-4-((5-(dimethylphosphoryl)quinoxalin-6-yl)amino)pyrimidin-2-yl)amino)-2-ethyl-5-methoxyphenyl)piperidin-4-yl)piperazine-1-carbonyl)piperidin-1-yl)-2-(2,6-dioxopiperidin-3-yl)isoindoline-1,3-dione], the “DTC Dmax (%)” value in experiment [1] amounted to 94.22%. The half-maximal degradation concentration (DC50) in experiment [1] was 4.71 nM; in experiment [2], 13.3 nM; in experiment [3], 9.74 nM; on EGFR (HCC827 cells) it was 6.2 nM. For the same compound, the figures for the Dmax (in experiment [2]; in experiment [3]; at EGFR (HCC827 cells)) were 87.9%, 74.8% and 76.7%, respectively.

Take `CCc1cc(Nc2ncc(Br)c(Nc3ccc4nccnc4c3P(C)(C)=O)n2)c(OC)cc1N1CCC(N2CCN(CC3CN(c4ccc5c(c4)CN(C4CCC(=O)NC4=O)C5=O)C3)CC2)CC1` (centres unmarked) [Example 160, 3-(5-(3-((4-(1-(4-((5-bromo-4-((5-(dimethylphosphoryl)quinoxalin-6-yl)amino)pyrimidin-2-yl)amino)-2-ethyl-5-methoxyphenyl)piperidin-4-yl)piperazin-1-yl)methyl)azetidin-1-yl)-1-oxoisoindolin-2-yl)piperidine-2,6-dione]: the “DTC Dmax (%)” value in experiment [1] amounted to 94.14%. The DC50 in experiment [1] came out at 6.95 nM; in experiment [2], 18.1 nM; in experiment [3] it was 3.07 nM; on EGFR (HCC827 cells), 2.69 nM. In addition, the maximal degradation (Dmax) stood at 92.9% in experiment [2], 76.8% in experiment [3] and 81.7% on EGFR (HCC827 cells).

As for `CCc1cc(Nc2ncc(Br)c(Nc3ccc4nccnc4c3P(C)(C)=O)n2)c(OC)cc1N1CCC(N2CCN(CC3CCN(c4ccc(C5CCC(=O)NC5=O)cc4)C3)CC2)CC1` (centres unmarked) [Example 168, 3-(4-(3-((4-(1-(4-((5-bromo-4-((5-(dimethylphosphoryl)quinoxalin-6-yl)amino)pyrimidin-2-yl)amino)-2-ethyl-5-methoxyphenyl)piperidin-4-yl)piperazin-1-yl)methyl)pyrrolidin-1-yl)phenyl)piperidine-2,6-dione], the “DTC Dmax (%)” value in experiment [1] is given as 88.5%. The DC50 in experiment [1] turned out to be 22.4 nM; in experiment [2], 47 nM; in experiment [3], 1.61 nM; on EGFR (HCC827 cells) it was 4.85 nM. The Dmax in experiment [2] worked out at 86.4%; in experiment [3], 62.4%; on EGFR (HCC827 cells), 81.2%.

For the compound `CCc1cc(Nc2ncc(Br)c(Nc3ccc4nccnc4c3P(C)(C)=O)n2)c(OC)cc1N1CCC(N2CCN(C(=O)C3CCN(c4ccc5c(c4)C(C)(C)C(=O)N5C4CCC(=O)NC4=O)CC3)CC2)CC1` (centres unmarked) [Example 219, 3-(5-(4-(4-(1-(4-((5-bromo-4-((5-(dimethylphosphoryl)quinoxalin-6-yl)amino)pyrimidin-2-yl)amino)-2-ethyl-5-methoxyphenyl)piperidin-4-yl)piperazine-1-carbonyl)piperidin-1-yl)-3,3-dimethyl-2-oxoindolin-1-yl)piperidine-2,6-dione], the “DTC Dmax (%)” value in experiment [1] was determined as 93%. In addition, the DC50 in experiment [1] came out at 1.94 nM; in experiment [2] it was 4.8 nM; in experiment [3] it was 0.65 nM; on EGFR (HCC827 cells), 3.21 nM. Besides, the Dmax stood at 87.5% in experiment [2], 69.6% in experiment [3] and 65.9% on EGFR (HCC827 cells).

`CCc1cc(Nc2ncc(Br)c(Nc3ccc4nccnc4c3P(C)(C)=O)n2)c(OC)cc1N1CCC(N2CCN(C[C@H]3CCN(c4ccc(C5CCC(=O)NC5=O)cc4)C3)CC2)CC1` (stereo partly drawn) [Example 220, 3-(4-((R)-3-((4-(1-(4-((5-bromo-4-((5-(dimethylphosphoryl)quinoxalin-6-yl)amino)pyrimidin-2-yl)amino)-2-ethyl-5-methoxyphenyl)piperidin-4-yl)piperazin-1-yl)methyl)pyrrolidin-1-yl)phenyl)piperidine-2,6-dione]: in experiment [1], the “DTC Dmax (%)” value is 86%. Also, the half-maximal degradation concentration (DC50) in experiment [1] was found to be 18.2 nM; in experiment [2] it was 43.2 nM; in experiment [3] it was 8.8 nM; on EGFR (HCC827 cells), 5.1 nM. For the same compound, the results for the maximal degradation (Dmax) (in experiment [2]; in experiment [3]; at EGFR (HCC827 cells)) were 88.8%, 85.6% and 77.7%, respectively.

Regarding `CCc1cc(Nc2ncc(Br)c(Nc3ccc4nccnc4c3P(C)(C)=O)n2)c(OC)cc1N1CCC(N2CCN(C[C@@H]3CCN(c4ccc(C5CCC(=O)NC5=O)cc4)C3)CC2)CC1` (stereo partly drawn) [Example 221, 3-(4-((S)-3-((4-(1-(4-((5-bromo-4-((5-(dimethylphosphoryl)quinoxalin-6-yl)amino)pyrimidin-2-yl)amino)-2-ethyl-5-methoxyphenyl)piperidin-4-yl)piperazin-1-yl)methyl)pyrrolidin-1-yl)phenyl)piperidine-2,6-dione], in experiment [1], the “DTC Dmax (%)” value is listed as 87.37%. Besides, the DC50 in experiment [1] came out at 15.7 nM; in experiment [2] it was 36.1 nM; in experiment [3], 6.46 nM; at EGFR (HCC827 cells), 5.15 nM. Besides, the greatest degradation seen (Dmax) was found to be 84.2% in experiment [2], 61% in experiment [3] and 75.3% at EGFR (HCC827 cells).

Take `CCc1cc(Nc2ncc(Br)c(Nc3ccc4nccnc4c3P(C)(C)=O)n2)c(OC)cc1N1CCC(N2CCN(C(=O)CC3CN(c4ccc5c(c4)C(=O)N(C4CCC(=O)NC4=O)C5=O)C3)CC2)CC1` (centres unmarked) [Example 222, 5-(3-(2-(4-(1-(4-((5-bromo-4-((5-(dimethylphosphoryl)quinoxalin-6-yl)amino)pyrimidin-2-yl)amino)-2-ethyl-5-methoxyphenyl)piperidin-4-yl)piperazin-1-yl)-2-oxoethyl)azetidin-1-yl)-2-(2,6-dioxopiperidin-3-yl)isoindoline-1,3-dione]: the “DTC Dmax (%)” value in experiment [1] is given as 83.72%. Besides, the DC50 in experiment [1] came to 3.41 nM; in experiment [2], 21.3 nM; in experiment [3], 7.03 nM; at EGFR (HCC827 cells), 3.71 nM. Besides, the Dmax in experiment [2] was 75.6%; in experiment [3], 69%; at EGFR (HCC827 cells), 78.5%.

Take `CCc1cc(Nc2ncc(Br)c(Nc3ccc4nccnc4c3P(C)(C)=O)n2)c(OC)cc1N1CCC(N2CCN(C(=O)[C@H]3C[C@H](N(C)c4ccc(C5CCC(=O)NC5=O)cc4)C3)CC2)CC1` (some centres unmarked) [Example 247, 3-(4-(((1r,3r)-3-(4-(1-(4-((5-bromo-4-((5-(dimethylphosphoryl)quinoxalin-6-yl)amino)pyrimidin-2-yl)amino)-2-ethyl-5-methoxyphenyl)piperidin-4-yl)piperazine-1-carbonyl)cyclobutyl)(methyl)amino)phenyl)piperidine-2,6-dione]: the “DTC Dmax (%)” value in experiment [1] is reported as 86.93%. The DC50 in experiment [1] amounted to 6.37 nM; in experiment [2], 18.6 nM; in experiment [3], 5.1 nM; at EGFR (HCC827 cells) it was 4.59 nM. In addition, the Dmax in experiment [2] was determined as 83.1%; in experiment [3], 72.8%; at EGFR (HCC827 cells) it was 67%.

With `CCc1cc(Nc2ncc(Br)c(Nc3ccc4nccnc4c3P(C)(C)=O)n2)c(OC)cc1N1CCC(N2CCN(C(=O)C3CCN(c4cc(F)c(C5CCC(=O)NC5=O)c(F)c4)CC3)CC2)CC1` (centres unmarked) [Example 254, 3-(4-(4-(4-(1-(4-((5-bromo-4-((5-(dimethylphosphoryl)quinoxalin-6-yl)amino)pyrimidin-2-yl)amino)-2-ethyl-5-methoxyphenyl)piperidin-4-yl)piperazine-1-carbonyl)piperidin-1-yl)-2,6-difluorophenyl)piperidine-2,6-dione], the “DTC Dmax (%)” value in experiment [1] was 92.55%. For the same compound, the DC50 in experiment [1] was determined as 4.98 nM; in experiment [2] it was 15.9 nM; in experiment [3], 3.61 nM; on EGFR (HCC827 cells) it was 3.14 nM. In addition, the Dmax in experiment [2] was 84.7%; in experiment [3], 75.5%; at EGFR (HCC827 cells) it was 77.7%.

For `CCc1cc(Nc2ncc(Br)c(Nc3ccc4nccnc4c3P(C)(C)=O)n2)c(OC)cc1N1CCC(N2CCN(C(=O)[C@@H]3CCN(c4cc(F)c(C5CCC(=O)NC5=O)c(F)c4)C3)CC2)CC1` (stereo partly drawn) [Example 255, 3-(4-((R)-3-(4-(1-(4-((5-bromo-4-((5-(dimethylphosphoryl)quinoxalin-6-yl)amino)pyrimidin-2-yl)amino)-2-ethyl-5-methoxyphenyl)piperidin-4-yl)piperazine-1-carbonyl)pyrrolidin-1-yl)-2,6-difluorophenyl)piperidine-2,6-dione], the “DTC Dmax (%)” value in experiment [1] is 96.33%. The DC50 in experiment [1] amounted to 5.62 nM; in experiment [2], 17.3 nM; in experiment [3], 3.27 nM; at EGFR (HCC827 cells), 2.87 nM. Further, the Dmax in experiment [2] is 83.4%; in experiment [3] it was 90.2%; at EGFR (HCC827 cells) it was 78.5%.
